Measurements reported in patent US7959956B2, “Method for treating diabetic complications” (Korea Institute of Oriental Medicine, Ltd., priority 2004, dated 2011).
One block for each compound: values may come before it.

Legend:
[1] = tested on: production of advanced glycation endproducts (bovine serum albumin + sugar mixture); experiment: Inhibition of production of advanced glycation endproducts (BSA + fructose/glucose, fluorescence); format: biochemical
Description: As a protein source, bovine serum albumin (hereinafter, referred to as “BSA”; Sigma, USA) was used. BSA was dissolved in 50 mM phosphate buffer (pH 7.4) to a concentration of 10 mg/ml.
As a sugar source, a mixture of 0.1 M fructose and 0.1 M glucose was used.
This sugar mixture was added to the prepared BSA solution, for use in tests.
The herbal extract mixture prepared in Example 2 was dissolved in 15% Tween80, and this solution was added to the BSA-sugar mixture and cultured at 37° C. for 30 days. At this time, 0.02% sodium azide was used as an antibacterial agent.
As a control group, a culture consisting of BSA and the sugar mixture was cultured, and as blanks to the control and test groups, the materials for the test group and the materials for the control group were used after preparation without incubation.
In order to reduce errors to the lowest possible extent, 4 samples for each group were used. Just before culturing, the samples were filled with nitrogen gas (99.999% purity) in order to prevent them being contaminated. After 30 days, the content of advanced glycation endproducts in the culture media was analyzed. The advanced glycation endproducts are fluorescent, show a brown color, are crosslinkable, and have ligands which can be recognized by cellular membrane receptors. The amount of the advanced glycation endproducts with such properties was measured with a spectrophotometer (excitation at 350 nm and release at 450 nm) so as to determine the inhibition of production of the advanced glycation endproducts.
The inhibition (%) of production of advanced glycation endproducts was calculated according to the following equation: Inhibition (%) of production=100−[(fluorescent intensity of test group−fluorescent intensity of blank to test group)/(fluorescent intensity of control group−fluorescent intensity of blank to control group)]×100
The part (1) of this Example was repeated except that extract from each of Euphorbiae radix, gingered Magnolia bark, parched Puerariae radix and Glycyrrhizae radix was dissolved in 15% Tween80 and cultured for 90 days.
Magnolol was dissolved in distilled water at concentrations of 3.33 μg/ml, 6.66 μg/ml, 13.32 μg/ml and 26.6 μg/ml, and then cultured for 37° C. for 30 days in the same manner as in the above part (1).
aminoguanidine, a positive control group, was tested in the same manner as in the above part (1) except that aminoguanidine was dissolved in distilled water at selected concentrations and cultured for 30 days and 90 days.

[2] = tested on: streptozotocin diabetes-induced SD rats; experiment: Streptozotocin diabetic rats: body weight, feed and water intake; format: in vivo, rat
Source text: Four-week-old SD male rats weighing 120-140 g were housed in cages at one animal for each cage and allowed for access to general solid food and water while adapting the animals to an animal room of this institute (the applicant).
(§1) The test animals were divided into the following four groups: (1) a normal group administered with carboxymethyl cellulose (NC+CMC); (2) a diabetes-induced group administered with carboxymethylcellulose (DC+CMC); (3) a diabetes-induced group administered with the herbal extract mixture (DC+HMP); (4) and a diabetes-induced group administered with a positive control (Eparlestat) (DC+S11). The diabetes-induced groups each consisted of 9-10 animals, and the normal group consisted of 5-6 animals. The body weights of the animals were similar between the test groups.
(§2) The test animals were adapted to the animal room and then fasted overnight. Streptozotocin was dissolved in 0.1 M citrate buffer (pH 4.5), and just then, injected into the abdominal cavities of the fasted animals at a dose of 60 mg/kg. At 2 days after administering the streptozotocin solution, tail vein blood was sampled from the animals and examined for blood glucose level. Rats having a blood glucose level of more than […] were determined to be diabetes-induced rats.
To examine a therapeutic effect against chronic diabetic complications, the rats was continued to maintain in diabetic conditions for 30 days. From day 31, the rats were administered with the drugs for 8 weeks.
Since the herbal extract mixture (HMP) and Epalrestat (S11) used in the tests are insoluble in water, they were dissolved in 1% carboxymethylcellulose before use. The normal group was administered with carboxylmethylcellulose so as to eliminate an effect caused by carboxylmethylcellulose.
(§3) For the two diabetes-induced groups other than the normal group, each of 1 g/kg of the herbal extract mixture (HMP) and 25 mg/kg of Epalrestat (S11) was dissolved in 1% CMC and administered orally to the rats by a sonde daily for 8 weeks.
After administering the samples during the administration period, the test animals were fasted for at least 15 hours at one day before autopsy, and then measured for body weight.
The body weight was measured every day, the feed intake was measured one time a week, and the water intake was measured every day.

[3] = tested on: streptozotocin diabetes-induced SD rats; experiment: Streptozotocin diabetic rats: organ weight; format: in vivo, rat; conditions: oral daily 8 weeks
Source text: as §1, §2, §3
One day before autopsy, the test animals were fasted for at least 15 hours and then measured for body weight. Then, the animals were anesthetized with ethyl ether, from which blood was collected via the abdominal aorta. Some of the collected blood was treated with heparin, and some of whole blood was centrifuged at 3,000 rpm and 4° C. for 15 minutes. From each of the blood samples, plasma was isolated and stored at −80° C. before use in data analysis.
The kidneys of the animals were removed after washing by perfusion and measured for weight. Next, the kidneys were separated into cortex and medulla, which were rapidly cooled and stored at −80° C. In addition, the liver, lungs, pancreas, spleen and heart were separated and measured for weight.

[4] = tested on: streptozotocin diabetes-induced SD rats; experiment: Streptozotocin diabetic rats: anti-cataract effect (eye lens opacity); format: in vivo, rat; conditions: for Eye lens's opacity (%): mean
Source text: as §1, §2, §3
From the eyeballs removed under a microscope, the eye lenses were separated and transferred onto 24-well plates each containing 2 ml of a saline solution. Then, the eye lenses were photographed with a digital camera. The opacity of the eye lenses was analyzed by the use of an imaging system program.
The eye lenses were photographed with a camera and measured for weight. Then, the eye lenses were placed in phosphate buffer (pH 6.9) and homogenized at 4° C. For use in the measurement of enzymatic activity, some of the homogenized solution was centrifuged at 3,000 rpm for 20 minutes, and the supernatant was collected and stored at −80° C. For use in the measurement of content of sorbitol, etc., the remaining homogenized solution was added with ZnSO4 and NaOH so as to remove protein, and centrifuged at 3,000 rpm for 20 minutes, and the supernatant was collected and stored at −80° C.
The results of visual observation for the eyeballs are shown in FIG. 9, and the results of camera observation for the eye lenses are shown in FIG. 10.

[5] = tested on: streptozotocin diabetes-induced SD rats; experiment: Streptozotocin diabetic rats: biochemical factors in serum; format: in vivo, rat; conditions: oral daily 8 weeks; for Glucose level: plasma
Source text: as §1, §2, §3
At two-week intervals up to before autopsy, blood was taken from the orbital veins and measured for plasma glucose level with a glucose kit. The plasma glucose level was measured at 500 nm UV by a glucose oxidase method.
BUN was determined by measuring absorbance at 580 nm by a urease-indophenol method.
Triglyceride content was quantified by measuring absorbance at 550 nm by an enzymatic method (POD).
Total cholesterol level was determined by measuring absorbance at 500 nm by an enzymatic method.
Creatinine was determined by measuring absorbance at 515 nm by a modified Jaffe's method.
Protein in serum was determined by BCA assay. Serum was reacted with a bicinchonicic acid solution of bicinchonicic acid, Na2CO3, NaHCO3 and C4H4O6Na2.2H2O in 0.1N NaOH and a 4% CuSO4.5H2O solution and then measured for absorbance at 562 nm.

[6] = diabetes-induced rats, oral daily 8 weeks

Structure (SMILES): C=CCc1ccc(O)c(-c2cc(CC=C)ccc2O)c1 [Magnolol, magnolol]
Inhibition (%) of production of advanced glycation endproducts ([1]; 3.33 μg/ml, cultured for 30 days): 36.36 ± 1.61%
Inhibition (%) of production of advanced glycation endproducts ([1]; 6.66 μg/ml, cultured for 30 days): 55.75 ± 2.11%
Inhibition (%) of production of advanced glycation endproducts ([1]; 13.32 μg/ml, cultured for 30 days): 77.05 ± 1.70%
Inhibition (%) of production of advanced glycation endproducts ([1]; 26.64 μg/ml, cultured for 30 days): 100%
IC50 (μg/ml), inhibition of production of advanced glycation endproducts ([1]; cultured for 30 days, 37° C.): 5.36 µg/mL

Structure (SMILES): CC(/C=C1\SC(=S)N(CC(=O)O)C1=O)=C\c1ccccc1 [Epalrestat]
Body weight, early stage ([2]; oral daily 8 weeks (HMP 1 g/kg, S11 25 mg/kg), early stage): 154.03 ± 45.46 g
Body weight, end stage ([2]; oral daily 8 weeks (HMP 1 g/kg, S11 25 mg/kg), end stage): 283.24 ± 42.60 g
Heart absolute weight [3]: 0.95 ± 0.11 g
Heart relative weight (%) [3]: 0.34 ± 0.03 %
Kidneys absolute weight [3]: 3.18 ± 0.30 g
Kidneys relative weight (%) [3]: 1.14 ± 0.11 %
Liver absolute weight [3]: 11.63 ± 1.08 g
Liver relative weight (%) [3]: 4.15 ± 0.40 %
Lungs absolute weight [3]: 1.55 ± 0.13 g
Lungs relative weight (%) [3]: 0.55 ± 0.06 %
Pancreas absolute weight [3]: 0.86 ± 0.11 g
Pancreas relative weight (%) [3]: 0.31 ± 0.05 %
Spleen absolute weight [3]: 0.54 ± 0.09 g
Spleen relative weight (%) [3]: 0.19 ± 0.02%
Eye lens's opacity (20 pixels/m^2) [4, 6]: 134.04 ± 45.00 20 pixels/m^2
Eye lens's opacity (%) ([4]; diabetes-induced rats, oral daily 8 weeks, listed as S11): 37.38 ± 13.56 %
BUN [5]: 23.60 ± 5.15 mg/dL
Creatinin [5]: 1.22 ± 0.16 mg/dL
Total cholesterol [5]: 59.50 ± 13.88 mg/dL
Triglyceride [5]: 46.18 ± 8.26 mg/dL
Glucose level [5]: 197.94 mg/dL
Glucose level ([5]; listed as S11): 197.94 ± 76.66 mg/dL
Protein ([5]; serum, BCA assay): 10.79 ± 0.85 µg/µL

Inhibition (%) of production of advanced glycation endproducts ([1]; bovine, 30 days, 27.5 μg/ml, pH 7.4): 45.78 ± 2.400%
Inhibition (%) of production of advanced glycation endproducts ([1]; bovine, 30 days, 55 μg/ml, pH 7.4): 55.43 ± 4.000%
Inhibition (%) of production of advanced glycation endproducts ([1]; bovine, 30 days, 110 μg/ml, pH 7.4): 73.52 ± 1.750%
Inhibition (%) of production of advanced glycation endproducts ([1]; bovine, 30 days, 550 μg/ml, pH 7.4): 96.41 ± 2.200%
IC50 (μg/ml), inhibition of production of advanced glycation endproducts ([1]; bovine, 30 days, pH 7.4): 34.90 µg/mL
Inhibition (%) of production of advanced glycation endproducts ([1]; bovine, 90 days, 27.5 μg/ml, pH 7.4): 39.647 ± 3.406%
Inhibition (%) of production of advanced glycation endproducts ([1]; bovine, 90 days, 110 μg/ml, pH 7.4): 65.714 ± 5.394%
IC50 (μg/ml), inhibition of production of advanced glycation endproducts ([1]; bovine, 90 days, pH 7.4): 30.80 µg/mL
Structure (SMILES): N=C(N)NN [Aminoguanidine, aminoguanidine]

Structure (SMILES): CC(/C=C1\SC(=S)N(CC(=O)O)C1=O)=C\c1ccccc1 [Epalrestat (S11)]
Feed intake compared to diabetes-induced group ([2]; oral daily 8 weeks): more feed than that of the diabetes-induced group
Water intake compared to diabetes-induced group ([2]; oral daily 8 weeks): more water than that of the diabetes-induced group
Increase in body weight ([2]; oral daily 8 weeks (HMP 1 g/kg, S11 25 mg/kg)): 129.21 g
Eye lens's opacity (%) [4, 6]: 37.38±13.56%
Animals with cataract symptoms in both eyeballs on the day of autopsy ([4]; visual observation of eyeballs, FIG. 9): four of seven
